We go through 11 compounds from ChEMBL document CHEMBL1201862, “PubChem BioAssay data set” (2004).

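Test compounds were applied to cells in 96-well plates for 48 hours at 5 doses. Abbreviation: GI50, concentration required for 50% inhibition of growth.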 Active and inactive are the calls of the source. Cut-off read from the data, not from the text of the source: active = GI50 up to about 1.1 µM and inactive = higher.

Some test systems named below: UACC-257; RXF 393; Hs-578T; Malme-3M; ACHN; HOP-92; HCT-116; UO-31; MCF7; NCI-H23; LOX IMVI; OVCAR-3; SN12C; MOLT-4; SW-620; RPMI-8226; TK-10; HOP-62; PC-3.
Common to all, as to test: inhibition of tumour cell growth, NCI panel, 48 h

As to `COc1cccc2nc3ccccc3nc12`, the GI50 with UACC-257 was 91.2 µM (inactive); with RXF 393 it was 39.3 µM (inactive); in the assay on Hs-578T, > 100 µM (inactive); with Malme-3M, > 100 µM (inactive); in the assay with ACHN, 25.3 µM (inactive); in the assay with HOP-92, 33 µM (inactive). For the same compound, the GI50 in the assay with HCT-116 is 38.5 µM (inactive); with UO-31, 36 µM (inactive); in the assay with MCF7 it was 54.7 µM (inactive); with NCI-H23, > 100 µM (inactive); in the assay with LOX IMVI, 38.8 µM (inactive); in the assay on OVCAR-3 it was 91 µM (inactive). In addition, the GI50 is 71.4 µM (inactive) in the assay on SN12C; 60.8 µM (inactive) with MOLT-4; 45.8 µM (inactive) with SW-620; 17 µM (inactive) with RPMI-8226; 66.1 µM (inactive) with TK-10; > 100 µM (inactive) in the assay with HOP-62. Also, in the assay on PC-3, the GI50 was 25.5 µM (inactive).
Regarding `C/C(=N\c1cc(Cl)cc(Cl)c1)c1ccncc1`, the GI50 with UACC-257 was > 100 µM (inactive); with RXF 393, > 100 µM (inactive); in the assay with Hs-578T, > 100 µM (inactive); in the assay with Malme-3M it was > 100 µM (inactive); with ACHN, > 100 µM (inactive); with HOP-92, 63.8 µM (inactive). Moreover, the GI50 with HCT-116 was > 100 µM (inactive); with UO-31, 89.7 µM (inactive); in the assay on MCF7, > 100 µM (inactive); with NCI-H23, > 100 µM (inactive); in the assay on LOX IMVI it was > 100 µM (inactive); in the assay with OVCAR-3 it was > 100 µM (inactive). Further, the GI50 with SN12C is > 100 µM (inactive); with MOLT-4, > 100 µM (inactive); in the assay on SW-620, > 100 µM (inactive); in the assay on RPMI-8226, 31 µM (inactive); in the assay on TK-10 it was > 100 µM (inactive); in the assay on HOP-62 it was > 100 µM (inactive). Moreover, in the assay on PC-3, the GI50 is > 100 µM (inactive).
`O=P(O)(O)CN1CCNCCN(CP(=O)(O)O)CCN(CP(=O)(O)O)CCNCC1`: the GI50 in the assay on UACC-257 was > 100 µM (inactive); in the assay with RXF 393, > 100000 µM (inactive); in the assay with Hs-578T, > 100 µM (inactive); in the assay with Malme-3M, 0.296 µM (active); in the assay on ACHN, > 100 µM (inactive); in the assay on HOP-92 it was > 100 µM (inactive). In addition, the GI50 in the assay with HCT-116 is 54600 µM (inactive); with UO-31 it was > 100 µM (inactive); in the assay with MCF7 it was > 100 µM (inactive); with NCI-H23 it was > 100000 µM (inactive); in the assay on LOX IMVI it was 91800 µM (inactive); in the assay with OVCAR-3 it was > 100 µM (inactive). Also, the GI50 in the assay on SN12C, with MOLT-4, in the assay with SW-620, with RPMI-8226, with TK-10 and in the assay on HOP-62 was > 100 µM (inactive) throughout. Moreover, the GI50 in the assay on PC-3 is > 100 µM (inactive).
On to `CCOP(=O)(OCC)/C(C#N)=C/c1cccn1C`, for which the GI50 in the assay on UACC-257, in the assay with RXF 393, with Hs-578T, with Malme-3M, in the assay on ACHN and in the assay with HOP-92 was > 100 µM (inactive) throughout. Also, the GI50 with HCT-116 is > 100 µM (inactive); with UO-31 it was 41.6 µM (inactive); in the assay on MCF7 it was > 100 µM (inactive); in the assay on NCI-H23, > 100 µM (inactive); in the assay with LOX IMVI, > 100 µM (inactive); in the assay with OVCAR-3 it was > 100 µM (inactive). In addition, the GI50 with SN12C, in the assay with MOLT-4, in the assay on SW-620, in the assay on RPMI-8226, in the assay with TK-10 and in the assay on HOP-62 was > 100 µM (inactive) each time. In addition, the GI50 in the assay with PC-3 is > 100 µM (inactive).
In the case of `O=C1c2ccccc2C(=O)N1CC1S(=O)(=O)OCCOS1(=O)=O`, the GI50 in the assay on UACC-257, in the assay with RXF 393, in the assay on Hs-578T, in the assay with Malme-3M, in the assay with ACHN and with HOP-92 was > 100 µM (inactive) in each case. The GI50 in the assay with HCT-116, with UO-31, in the assay with MCF7, with NCI-H23, in the assay on LOX IMVI and with OVCAR-3 was > 100 µM (inactive) in each case. Further, the GI50 in the assay on SN12C, in the assay on MOLT-4, in the assay with SW-620, in the assay with RPMI-8226, in the assay with TK-10 and in the assay on HOP-62 was > 100 µM (inactive) each time. In the assay with PC-3, the GI50 was > 100 µM (inactive).
For the compound `Cc1ccc(C2(c3ccc(Cl)cc3)c3ccccc3C3=NCCN32)cc1` (stereo unspecified), the GI50 with UACC-257 was 6.55 µM (inactive); with RXF 393, 2.31 µM (inactive); in the assay with Hs-578T, 14.2 µM (inactive); in the assay on Malme-3M, 3.67 µM (inactive); in the assay on ACHN, 6.93 µM (inactive); in the assay with HOP-92, 6.04 µM (inactive). Moreover, the GI50 in the assay on HCT-116 is 2.19 µM (inactive); with UO-31, 3.37 µM (inactive); with MCF7 it was 1.44 µM (inactive); in the assay with NCI-H23 it was 14.3 µM (inactive); with LOX IMVI it was 12.8 µM (inactive); with OVCAR-3, 10.3 µM (inactive). Further, the GI50 in the assay on SN12C was 15.1 µM (inactive); in the assay on MOLT-4 it was 3.66 µM (inactive); in the assay with SW-620, 10.8 µM (inactive); in the assay with RPMI-8226, 7.16 µM (inactive); in the assay on TK-10, 5.43 µM (inactive); in the assay on HOP-62 it was 9.68 µM (inactive). Besides, the GI50 with PC-3 was 8.3 µM (inactive).
For the compound `Nn1c(Sc2nc3ccccc3c(=O)n2N)nc2ccccc2c1=O`, the GI50 was 16.5 µM (inactive) in the assay on UACC-257; 7.85 µM (inactive) in the assay with RXF 393; 17.1 µM (inactive) in the assay with Hs-578T; 3.57 µM (inactive) in the assay with Malme-3M; 8.95 µM (inactive) with ACHN; 6.92 µM (inactive) in the assay with HOP-92. For the same compound, the GI50 was 2.99 µM (inactive) in the assay on HCT-116; 1.73 µM (inactive) in the assay on UO-31; 4.1 µM (inactive) with MCF7; 1.91 µM (inactive) in the assay with NCI-H23; 1.64 µM (inactive) in the assay with LOX IMVI; 11.1 µM (inactive) with OVCAR-3. Moreover, the GI50 in the assay with SN12C was 5.75 µM (inactive); in the assay on MOLT-4, 1.63 µM (inactive); with SW-620 it was 2.29 µM (inactive); in the assay on RPMI-8226 it was 3.5 µM (inactive); in the assay on TK-10, 21.2 µM (inactive); in the assay on HOP-62 it was 16.6 µM (inactive). In the assay on PC-3, the GI50 is 11.7 µM (inactive).
`N#C/C(=C\c1ccccc1)C(=O)Nc1nnc(-c2ccccc2)o1`: the GI50 with UACC-257 was 25.7 µM (inactive); in the assay on RXF 393, 34 µM (inactive); with Hs-578T, > 100 µM (inactive); in the assay with Malme-3M, 31 µM (inactive); in the assay on ACHN, 35.6 µM (inactive); in the assay with HOP-92, 47.9 µM (inactive). For the same compound, the GI50 is 33.3 µM (inactive) with HCT-116; 29.4 µM (inactive) in the assay on UO-31; 50.9 µM (inactive) with MCF7; 39 µM (inactive) in the assay with NCI-H23; 37.5 µM (inactive) in the assay on LOX IMVI; 14.8 µM (inactive) in the assay with OVCAR-3. Moreover, the GI50 in the assay on SN12C was 36.7 µM (inactive); in the assay with MOLT-4, 33.1 µM (inactive); in the assay on SW-620, 52.7 µM (inactive); with RPMI-8226 it was 19.2 µM (inactive); with TK-10, > 100 µM (inactive); in the assay with HOP-62, 37.6 µM (inactive). The GI50 in the assay on PC-3 is 42.1 µM (inactive).
`Cc1cc(S(=O)(=O)Nc2nc(-c3ccccn3)n[nH]2)c(S)cc1Cl`: the GI50 in the assay on UACC-257 was 30.9 µM (inactive); in the assay with RXF 393, 17.4 µM (inactive); with Hs-578T, 28.8 µM (inactive); in the assay with Malme-3M, 18.1 µM (inactive); in the assay with ACHN, 15.8 µM (inactive); in the assay on HOP-92, 19 µM (inactive). Besides, the GI50 is 16.1 µM (inactive) in the assay with HCT-116; 2.67 µM (inactive) in the assay on UO-31; 31.3 µM (inactive) in the assay on MCF7; 27.2 µM (inactive) in the assay on LOX IMVI; 17.2 µM (inactive) in the assay with OVCAR-3; 36.2 µM (inactive) in the assay on SN12C. In addition, the GI50 was 22.7 µM (inactive) in the assay on MOLT-4; 12.2 µM (inactive) in the assay on SW-620; 33.7 µM (inactive) in the assay with RPMI-8226; 10 µM (inactive) in the assay on TK-10; 9.75 µM (inactive) in the assay on HOP-62; 31.1 µM (inactive) in the assay on PC-3.
For the compound `CO/N=C(\C)c1cccc(Nc2nc3ccccc3c3occc23)c1`, the GI50 in the assay with UACC-257 is 0.0419 µM (active); in the assay on RXF 393, 12.4 µM (inactive); in the assay with Hs-578T, 10.9 µM (inactive); in the assay on Malme-3M, 15.7 µM (inactive); in the assay on ACHN, 14 µM (inactive); with HOP-92, 6.3 µM (inactive). In addition, the GI50 in the assay with HCT-116 is 11.6 µM (inactive); in the assay with UO-31, < 0.01 µM (active); in the assay with MCF7, 18.1 µM (inactive); in the assay on LOX IMVI, 15.2 µM (inactive); with OVCAR-3 it was 16.3 µM (inactive); in the assay on SN12C, 13.3 µM (inactive). The GI50 with MOLT-4 is 11.2 µM (inactive); in the assay on RPMI-8226 it was 12.9 µM (inactive); in the assay on TK-10, 12.7 µM (inactive); in the assay on HOP-62 it was 15.4 µM (inactive); with PC-3, 14.5 µM (inactive).
For `COC(=O)[C@]1(c2cc3ccccc3[nH]2)CC2CN(CC(=O)N(C)OC)C1C1OC(C)(C)OC21` (stereo partly specified), the GI50 in the assay with UACC-257 was 32 µM (inactive); in the assay on RXF 393, 45.8 µM (inactive); with Hs-578T, > 100 µM (inactive); with Malme-3M it was > 100 µM (inactive); in the assay on ACHN it was 42.7 µM (inactive); in the assay with HOP-92, 47.8 µM (inactive). The GI50 in the assay on HCT-116 is 32.4 µM (inactive); in the assay on UO-31, 37.5 µM (inactive); in the assay on MCF7, 36.1 µM (inactive); in the assay with NCI-H23 it was 45.8 µM (inactive); in the assay on LOX IMVI it was 59.7 µM (inactive); with OVCAR-3, 41.8 µM (inactive). Besides, the GI50 in the assay on SN12C is 55 µM (inactive); with MOLT-4, 8.32 µM (inactive); in the assay on SW-620, 93.3 µM (inactive); in the assay with RPMI-8226 it was 23.2 µM (inactive); in the assay on TK-10, 56.6 µM (inactive); with HOP-62, 83.9 µM (inactive). Moreover, the GI50 in the assay with PC-3 was 42.5 µM (inactive).
